Assay results as given in publication PMC4304288, “Function through bio-inspired, synthesis-informed design: step-economical syntheses of designed kinase inhibitors” (Organic Chemistry Frontiers, 2014).

System: PKC (rat brain mixture)
Experiment: PKC inhibition assay (protocol of Kikkawa, [γ-32P]ATP, histone)
Assay type: biochemical
Details: rat brain mixture of PKC isoforms
Method: Our initial analogs were tested for inhibition of PKC[37],[38] (rat brain mixture) due to its clinical significance and our on-going and complementary work on PKC activators.[7b],[16],[26]
Simplified analog 19 was tested in the PKC inhibition assay using the rat brain mixture of PKC isoforms. […]. Computational docking[42] of the energy-minimized conformer of 19 in the computer-simulated ATP-binding pocket of PKCα (Fig. 3) illustrates the conserved hydrogen bonds between the maleimide and hinge region residues and the shape complementarity of the ligand with the pocket.
A PKC inhibition assay was performed following the protocol developed by Kikkawa and coworkers.5 The assay can be scaled as desired. Histone solution (0.33 mg/mL in 20 mM Tris buffer) was prepared from a stock solution (33 mg/mL, stored frozen). Phosphatidylserine (PS) vesicles were prepared by the addition of PS (10 mg/mL in chloroform, 240 µL) and dioleoylglycerol (10 mg/mL in ethanol, 40 µL) to a glass vial followed by removal of the chloroform under a stream of nitrogen. To the neat PS was added chilled 20 mM Tris assay buffer (2 mL) and the resulting mixture was sonicated (Branson Sonifier 250, power = 3, 30% duty cycle) four times for 30 sec with a 30 sec interval between sonications. The resulting milky suspension was stored on ice. "Stop" solution refers to a solution of 200 mM EDTA and 200 mM ATP in 20 mM Tris buffer.
Whatman filter papers were cut in 1 x 1 inches in dimension and labeled with tube number in pencil. An "Autogo" solution was prepared by mixing 27 µL of 3.75 mM ATP (in 20 mM Tris), 100 µL of 1.0 M MgCl2, 872 µL of 20 mM Tris buffer, and 1.3 µL of [γ-32P] ATP (total volume is 1 mL). "Autogo" solution should be kept in the hot hood all the time. "Cocktail 1" was prepared by mixing 70 µL of 10 mM Ca2+, 350 µL of 20 mM Tris, and 70 µL of histone solution (0.33 mg/mL in 20mM Tris). "Cocktail 2" was prepared by mixing 310 µL of 10 mM Ca2+, 930 µL of 20 mM Tris, 310 µL of the histone solution, and 310 µL of the PS solution (added only once the assay is ready to be run).
To each eppendorf tube, 10 µL of PKC solution and10 µL of the inhibitor solution were added. After addition of the inhibitor, each tube was vortexed. For negative controls, 70 µL of cocktail 1 was added to tubes 1 and 2. To the rest of the tubes were added 60 µL of cocktail 2. All the tubes were then transferred to the hot hood, and 20 µL of "Autogo" solution was added to each tube and vortexed immediately. A start countdown of 7 min was initiated when "Autogo" was added to the first tube. Addition to all the tubes should be completed within 7 min. When the countdown is over, "Stop" solution was added to each tube and vortexed. The interval between the addition of "Autogo" and "Stop" solution should be 7 min for each tube.
Contents of each tube was transferred to the piece of pre-labeled Whatman filter paper and the paper was washed by soaking them and swirling in a beaker filled with 300 mL of tap water. Once all the filter papers are soaked in the beaker, the supernatant was carefully drained (to the hot hood drain) and the papers were rinsed by soaking them in 300 mL of fresh tap water for 2 min. The water was decanted, and the papers were rinsed by soaking them in 300 mL of ethanol for 2 min. The ethanol should be recovered to a bottle in the hot hood (not to the drain). The papers were dried in the hot hood and each paper was transferred to a scintillation vial. The radiation was measured with the scintillation counter (Beckman LS 6000SC). The data set was analyzed using a least-square data-fitting algorithm in Prism 4 (Graphpad Software Inc.) to give an IC50 value (defined as the concentration of analogue required to inhibit 50% of PKC activity).

SMILES | IC50 [nM]
NCCCn1c2ccc(Cl)cc2c2c3c(c4c(c21)CCC(O)CC4)C(=O)NC3=O (centres unmarked) [Compound 10] | 2600
NCCCn1c2ccc(Cl)cc2c2c3c(c4c(c21)CCC(N)CC4)C(=O)NC3=O (centres unmarked) [Compound 11] | 12500
CNC1CCc2c3c(c4c5cc(Cl)ccc5n(CCCN)c4c2CC1)C(=O)NC3=O (centres unmarked) [Compound 12] | 14100
CN(C)C1CCc2c3c(c4c5cc(Cl)ccc5n(CCCN)c4c2CC1)C(=O)NC3=O (centres unmarked) [Compound 13] | 2900
CN(C)C1CCc2c3c(c4c5ccccc5n(CCCN)c4c2CC1)C(=O)NC3=O (centres unmarked) [Compound 14] | 1600
CN(C)C1CCc2c(CC3CCNCC3)cc3c(c2CC1)C(=O)NC3=O (centres unmarked) [Compound 19] | 13

System: PKCβ
Experiment: not given
Details: cited from earlier work

SMILES | selectivity for PKCβ over PKCα [fold]
Cn1cc(C2=C(c3cn(C4CCN(Cc5ccccn5)CC4)c4ccccc34)C(=O)NC2=O)c2ccccc21 [enzastaurin] | 26
CN(C)C[C@@H]1CCn2cc(c3ccccc32)C2=C(C(=O)NC2=O)c2cn(c3ccccc23)CCO1 [ruboxistaurin] | 60
